{"source": "patent US7279161B2", "about": "“Factor IX/factor IXa activating antibodies and antibody derivatives” (Baxter Aktiengesellschaft, priority 1999, dated 2007)", "key": {"FVIII deficient plasma": {"tested_on": "FVIII deficient plasma", "assay": "aPTT based one stage clotting assay in FVIII deficient plasma", "format": "biochemical, human", "conditions": "for one-stage clotting time (printed in brackets after 'strong reduction' / 'strongly active'): 2.2 nM human FIXa", "experimental": "During normal hemostasis, FIX becomes initially activated either by the tissue factor (TF)/factor VIIa pathway or later on by activated factor XI (FXIa). Subsequent to its activation, FIXa associates on the platelet surface in a membrane bound complex with activated FVIII. […] Different amounts of antibody 193/AD3 or mouse IgG (as a control) were used in a standard aPTT based one stage clotting assay. Briefly, 100 μl of antibody-containing samples were incubated with 100 μl of FVIII deficient plasma (DP) and with 100 μl of DAPTTIN (PTT Reagent for determining activated Thromboplastin Time; IMMUNO AG) reagent, in a KC10A clotting analyzer. Where indicated, a total amount of 50 ng activated FIX was included in the reaction mixture. After a 4 minute incubation, the reaction was started by the addition of 100 μl CaCl2 (25 mM).\nThe peptides were also analyzed for their potential to reduce the clotting time in a FVIII deficient plasma. The aPTT based one stage clotting assay was essentially done as described (see example 6). Clotting times (time from starting the reaction to the “clot”-formation were compared either against FVIII, a buffer control (IZ) or a control peptide (scrambled version). The results of two typical clotting experiments done with two different aPTT reagents (DAPTTIN and Pathromtin SL) are shown in table 3A and table 3B."}, "human FIXa": {"target": "T1, human FIXa (Homo sapiens, UniProt P00740)", "T1 construct": "with (+) and without (−) addition of 50 ng human FIXaβ; purchased ERL (Enzyme Research Laboratories)", "assay": "Chromogenic FVIII-like (FXa generation) assay with human FIXa added", "format": "biochemical", "experimental": "The chromogenic activity of these antibody preparations was measured in the following FXa generation kinetic assay: 10 μg of monoclonal antibody (in 25 μl) were transferred to microtiter plate wells and warmed to 37° C. Chromogenic substrate (S-2222), synthetic thrombin inhibitor (I-2581), factor IXa and FX were reconstituted in sterile water and FIXa/FX (both bovine) were mixed with phospholipids according to the supplier's protocol. Per reaction, 50 μl of the phospholipid/FIXa/FX solution were combined with 25 μl CaCl2 (25 mM) and 50 μl of the substrate/inhibitor cocktail. To start the reaction, 125 μl of the premix were added to the monoclonal antibody solution in the microtiter plates and incubated at 37° C. Absorbance at 405 nm and 490 nm of the samples was read at various times (5 min to 2 h) against a reagent blank ([…] TBS instead of monoclonal antibodies) in a Labsystems iEMS Reader MF™ microtiter plate reader using GENESIS™ software. In parallel, the same reactions were performed except that 50 ng human FIXa were added per reaction.\nTo analyze the FVIII-like (FIXa activating) activity of the peptides, an assay system based on a commercial available FVIII assay was developed (see examples 2 and 4). The basic principle is, that without a cofactor, FIXa will have very limited activity towards its natural substrate FX. […] The amount of FXa generated is monitored by cleavage of a chromogenic substrate. The principle of the revised chromogenic assay is described for two representative peptides: A1/3 and A1/5 (Table 2). Briefly, 25 μl aliquots of peptide stock solution (in imidazole buffer (IZ) 50 mM imidazole, 100 mM NaCl, pH 7.2) were transferred to microtiter plate wells and warmed to 37° C. Chromogenic FXa substrate (S-2222), synthetic thrombin inhibitor (I-2581), bovine FIXa and bovine FX were reconstituted in sterile water and FIXa/FX mixed with phospholipids according to the supplier's protocol. […] Per reaction, 50 μl of the phospholipid/FIXa/FX solution were combined with 25 μl CaCl2 (25 mM) and 50 μl of the substrate/inhibitor cocktail. To start the reaction, 125 μl of the premix were added to the peptide solution in the microtiter plate and incubated at 37° C. Absorbance at 405 nm and 490 nm of the samples was read at various times (5 min to 2 h) against a reagent blank in a Labsystems iEMS Reader MF™ microtiter plate reader using GENESIS™ software."}, "[1]": {"conditions": "in the presence of 2.2 nM human FIXa"}, "[2]": {"conditions": "12.5 nM peptide, (+) presence of activated human FIX"}, "[3]": {"conditions": "12.5 nM peptide, (−) absence of activated human FIX"}, "[4]": {"conditions": "0.125 μM peptide, (+) presence of activated human FIX"}, "[5]": {"conditions": "0.125 μM peptide, (−) absence of activated human FIX"}, "[6]": {"conditions": "1.25 μM peptide, (+) presence of activated human FIX"}, "[7]": {"conditions": "1.25 μM peptide, (−) absence of activated human FIX"}, "[8]": {"conditions": "12.5 μM peptide, (+) presence of activated human FIX"}, "[9]": {"conditions": "12.5 μM peptide, (−) absence of activated human FIX"}}, "note": "“Also recorded” adds a separate entry of the source."}
{"sequence": "RRREGAGYYVNWYFDRRR [A1/3-2]", "values": [{"measurement": "one-stage clotting time (printed in brackets after 'strong reduction' / 'strongly active')", "setting": "FVIII deficient plasma; 12.5 μM", "result": 34, "unit": "s"}, {"measurement": "one-stage clotting activity", "setting": "FVIII deficient plasma; [1]", "result": "strong reduction of the one-stage clotting time"}, {"measurement": "chromogenic activity", "setting": "human FIXa; Alanine scan", "result": "high chromogenic activity"}]}
{"sequence": "RRREGGAYYVNWYFDRRR [A1/3-3]", "values": [{"measurement": "one-stage clotting time (printed in brackets after 'strong reduction' / 'strongly active')", "setting": "FVIII deficient plasma; 12.5 μM", "result": 31, "unit": "s"}, {"measurement": "one-stage clotting activity", "setting": "FVIII deficient plasma; higher concentrations (12.5 μM), absence of FIXa", "result": "somewhat inhibitory"}, {"measurement": "one-stage clotting activity", "setting": "FVIII deficient plasma; [1]", "result": "strongly active"}, {"measurement": "final concentration of optimum chromogenic activity", "setting": "human FIXa", "result": "~12", "unit": "µM"}]}
{"sequence": "RRREGGEYYVNWYFDRRR [A1/3-24]", "values": [{"measurement": "procoagulant activity", "setting": "FVIII deficient plasma; absence of human FIXa", "result": "no procoagulant activity"}, {"measurement": "one-stage clotting activity", "setting": "FVIII deficient plasma; [1]", "result": "strongly active"}, {"measurement": "chromogenic FVIII-like activity at higher concentrations", "setting": "human FIXa; up to 24 μM", "result": "lost activity"}]}
{"sequence": "RRREGGGFTVNWYFDRRR [B1/7]", "values": [{"measurement": "clotting time", "setting": "FVIII deficient plasma; [2]", "result": 99, "unit": "s"}, {"measurement": "clotting time", "setting": "FVIII deficient plasma; [3]", "result": 110, "unit": "s"}, {"measurement": "clotting time", "setting": "FVIII deficient plasma; [4]", "result": 99, "unit": "s"}, {"measurement": "clotting time", "setting": "FVIII deficient plasma; [5]", "result": 109, "unit": "s"}, {"measurement": "clotting time", "setting": "FVIII deficient plasma; [6]", "result": 92, "unit": "s"}, {"measurement": "clotting time", "setting": "FVIII deficient plasma; [7]", "result": 112, "unit": "s"}, {"measurement": "clotting time", "setting": "FVIII deficient plasma; [8]", "result": 83, "unit": "s"}, {"measurement": "clotting time", "setting": "FVIII deficient plasma; [9]", "result": 157, "unit": "s"}, {"measurement": "FIXa activating activity (generation of FXa)", "setting": "human FIXa; 2.4 μM peptide, 2.3 nM human FIXa", "result": "well measurable generation of FXa; also recorded: measureable generation of Fxa"}, {"measurement": "FXa generation without FIXa and FX", "setting": "human FIXa; 2.4 μM peptide, w/o FIXa/FX", "result": "no FXa was synthesized; also recorded: no reaction is detectable"}]}
{"sequence": "RRRFGVGYGETNFDWRRR [B1/7scr3]", "values": [{"measurement": "clotting time", "setting": "FVIII deficient plasma; [2]", "result": 94, "unit": "s"}, {"measurement": "clotting time", "setting": "FVIII deficient plasma; [3]", "result": 105, "unit": "s"}, {"measurement": "clotting time", "setting": "FVIII deficient plasma; [4]", "result": 94, "unit": "s"}, {"measurement": "clotting time", "setting": "FVIII deficient plasma; [5]", "result": 106, "unit": "s"}, {"measurement": "clotting time", "setting": "FVIII deficient plasma; [6]", "result": 94, "unit": "s"}, {"measurement": "clotting time", "setting": "FVIII deficient plasma; [7]", "result": 105, "unit": "s"}, {"measurement": "clotting time", "setting": "FVIII deficient plasma; [8]", "result": 102, "unit": "s"}, {"measurement": "clotting time", "setting": "FVIII deficient plasma; [9]", "result": 115, "unit": "s"}, {"measurement": "FIXa activating activity in chromogenic assay", "setting": "human FIXa; data not shown", "result": "no activity"}]}
{"sequence": "RRRGEYGVYWNGDFYRRR [A1/3-scr3]", "values": [{"measurement": "average clotting time", "setting": "FVIII deficient plasma; Table 3A Exp. 1, DAPTTIN, 2.5 μM, 2.2 nM FIXa", "result": 96, "unit": "s"}, {"measurement": "clotting time", "setting": "FVIII deficient plasma; Table 3A Exp. 1, DAPTTIN, 2.5 μM, 2.2 nM FIXa, duplicate 1", "result": 96.3, "unit": "s"}, {"measurement": "clotting time", "setting": "FVIII deficient plasma; Table 3A Exp. 1, DAPTTIN, 2.5 μM, 2.2 nM FIXa, duplicate 2", "result": 95.2, "unit": "s"}, {"measurement": "average clotting time", "setting": "FVIII deficient plasma; Table 3A Exp. 1, DAPTTIN, 2.5 μM, w/o FIXa", "result": 108, "unit": "s"}, {"measurement": "clotting time", "setting": "FVIII deficient plasma; Table 3A Exp. 1, DAPTTIN, 2.5 μM, w/o FIXa, duplicate 1", "result": 107.8, "unit": "s"}, {"measurement": "clotting time", "setting": "FVIII deficient plasma; Table 3A Exp. 1, DAPTTIN, 2.5 μM, w/o FIXa, duplicate 2", "result": 107.4, "unit": "s"}, {"measurement": "average clotting time", "setting": "FVIII deficient plasma; Table 3A Exp. 1, DAPTTIN, 7.5 μM, 2.2 nM FIXa", "result": 101, "unit": "s"}, {"measurement": "clotting time", "setting": "FVIII deficient plasma; Table 3A Exp. 1, DAPTTIN, 7.5 μM, 2.2 nM FIXa, duplicate 1", "result": 100.8, "unit": "s"}, {"measurement": "clotting time", "setting": "FVIII deficient plasma; Table 3A Exp. 1, DAPTTIN, 7.5 μM, 2.2 nM FIXa, duplicate 2", "result": 100.6, "unit": "s"}, {"measurement": "average clotting time", "setting": "FVIII deficient plasma; Table 3A Exp. 1, DAPTTIN, 7.5 μM, w/o FIXa", "result": 114, "unit": "s"}, {"measurement": "clotting time", "setting": "FVIII deficient plasma; Table 3A Exp. 1, DAPTTIN, 7.5 μM, w/o FIXa, duplicate 1", "result": 114.2, "unit": "s"}, {"measurement": "clotting time", "setting": "FVIII deficient plasma; Table 3A Exp. 1, DAPTTIN, 7.5 μM, w/o FIXa, duplicate 2", "result": 113.9, "unit": "s"}, {"measurement": "average clotting time", "setting": "FVIII deficient plasma; Table 3A Exp. 1, DAPTTIN, 12.5 μM, 2.2 nM FIXa", "result": 104, "unit": "s"}, {"measurement": "clotting time", "setting": "FVIII deficient plasma; Table 3A Exp. 1, DAPTTIN, 12.5 μM, 2.2 nM FIXa, duplicate 1", "result": 103.1, "unit": "s"}, {"measurement": "clotting time", "setting": "FVIII deficient plasma; Table 3A Exp. 1, DAPTTIN, 12.5 μM, 2.2 nM FIXa, duplicate 2", "result": 104.5, "unit": "s"}, {"measurement": "average clotting time", "setting": "FVIII deficient plasma; Table 3A Exp. 1, DAPTTIN, 12.5 μM, w/o FIXa", "result": 117, "unit": "s"}, {"measurement": "clotting time", "setting": "FVIII deficient plasma; Table 3A Exp. 1, DAPTTIN, 12.5 μM, w/o FIXa, duplicate 1", "result": 116, "unit": "s"}, {"measurement": "clotting time", "setting": "FVIII deficient plasma; Table 3A Exp. 1, DAPTTIN, 12.5 μM, w/o FIXa, duplicate 2", "result": 117.6, "unit": "s"}, {"measurement": "average clotting time", "setting": "FVIII deficient plasma; Table 3A Exp. 1, DAPTTIN, 15 μM, 2.2 nM FIXa", "result": 106, "unit": "s"}, {"measurement": "clotting time", "setting": "FVIII deficient plasma; Table 3A Exp. 1, DAPTTIN, 15 μM, 2.2 nM FIXa, duplicate 1", "result": 106.1, "unit": "s"}, {"measurement": "clotting time", "setting": "FVIII deficient plasma; Table 3A Exp. 1, DAPTTIN, 15 μM, 2.2 nM FIXa, duplicate 2", "result": 105.5, "unit": "s"}, {"measurement": "average clotting time", "setting": "FVIII deficient plasma; Table 3A Exp. 1, DAPTTIN, 15 μM, w/o FIXa", "result": 122, "unit": "s"}, {"measurement": "clotting time", "setting": "FVIII deficient plasma; Table 3A Exp. 1, DAPTTIN, 15 μM, w/o FIXa, duplicate 1", "result": 122.5, "unit": "s"}, {"measurement": "clotting time", "setting": "FVIII deficient plasma; Table 3A Exp. 1, DAPTTIN, 15 μM, w/o FIXa, duplicate 2", "result": 122, "unit": "s"}, {"measurement": "chromogenic FVIII-like activity (FXa generation)", "setting": "human FIXa; 2.9 nM human FIXa", "result": "did not give any significant chromogenic activity"}]}
